This note sets out measurements from patent US10138212B2, “Aminoquinazoline compounds as A2A antagonist” (Merck Sharp & Dohme Corp., priority 2015, dated 2018).

In one assay the target is human A2a receptor (Homo sapiens (Human), UniProt P29274). Description: A2a competition binding assay using Scintillation Proximity technology. The procedure: (§1) Binding affinities of compounds of the invention for the human A2a receptor were determined in a competition binding assay using Scintillation Proximity technology. Thus, 1* μg, or preferably 0.25 μg of membranes from HEK293 cells expressing the human A2a receptor were incubated with a compound of the invention at concentrations ranging from 3000 nM to 0.15 nM in a reaction mixture containing also 0.5 nM of a tritiated form of 5-amino-7-[2-phenethyl]-2-(furan-2-yl)-7H-pyrazolo[4,3-e][1,2,4]triazolo[1,5-c]pyrimidine (the tritiated compound) and 25 μg of wheat germ agglutin-coated yttrium silicate SPA beads for one hour at room temperature with agitation. The beads were then allowed to settle to the bottom of the wells for 1 hr, after which the membrane-associated radioactivity was determined by scintillation counting in a TopCount microplate reader. Ki values were determined using the Cheng-Prusoff equation.
human A2a receptor, sequence (P29274 whole entry): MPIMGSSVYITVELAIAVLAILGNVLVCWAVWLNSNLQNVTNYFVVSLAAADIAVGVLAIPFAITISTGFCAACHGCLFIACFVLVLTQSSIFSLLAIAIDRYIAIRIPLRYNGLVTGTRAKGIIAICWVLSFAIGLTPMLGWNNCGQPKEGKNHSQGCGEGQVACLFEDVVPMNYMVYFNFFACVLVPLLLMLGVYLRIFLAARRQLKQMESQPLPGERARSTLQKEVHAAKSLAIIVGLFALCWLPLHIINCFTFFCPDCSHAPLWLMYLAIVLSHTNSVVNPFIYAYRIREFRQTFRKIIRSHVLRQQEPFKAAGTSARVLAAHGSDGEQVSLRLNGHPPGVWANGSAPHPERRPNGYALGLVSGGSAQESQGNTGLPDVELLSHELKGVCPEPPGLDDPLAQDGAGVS
HEK293 cells expressing the human, rat, dog or monkey adenosine 2a receptor (Purchased from Perkin-Elmer # RBHA2AM400UA).
The Tritiated compound was prepared in-house by MRL Radiochemistry according to published methods.
Wheat germ agglutinin-coated yttrium silicate SPA beads (GE Healthcare #RPNQ0023). Dilute to 25 mg/ml in assay buffer.
Assay Buffer was prepared in house: Dulbecco's calcium and magnesium free phosphate buffered saline+10 mM MgCl2
Adenosine deaminase from calf intestine, 10 mg/2 ml (Roche #10 102 105 001).
A2a antagonist standard (9-chloro-1-(2-furanyl)-[1,2,4]triazolo1,5-c]quinazolin-5-amine from Tocris Bioscience)
Make eight 1:3 serial dilutions in 100% DMSO from a 3 mM compound stock
Transfer 50 nl of compound into a 384-well OptiPlate (Perkin Elmer).
Typically, final concentrations of compound used in the assay ranged from 3000 nM to 0.152 nM.
Dilute a solution of the Tritiated compound to 1.25 nM in assay buffer. This is a 2.5× solution. The final concentration in the assay is 0.5 nM. Calculate the concentration by counting two 5 μl aliquots.
Use *1 ug or preferrably 0.25 ug of membrane/well. Dilute membranes to 9.7 μg/ml in assay buffer. Treat with 20 ug/ml adenosine deaminase (ADA) for 15 minutes at room temperature to degrade endogenous adenosine.
Use 25 μg/well wheat germ agglutinin-coated yttrium silicate SPA beads.
Mix ADA-treated membranes and SPA beads together for 30 min prior to assay.
To the Perkin-Elmer Optiplate-384 containing the compound titration add 20 μl of 2.5× solution of the Tritiated compound and 30 μl of the membrane-bead mixture. Incubate for one hour at room temperature with agitation.
Include total binding (assay buffer+1% DMSO) and non-specific binding (CGS15943, 1 μM) wells.
Allow the beads to settle for one hour.
A curve fitting program (i.e., Prism, Activity Base, Chemcart) is used to determine the EC50. The Ki value is calculated using the Cheng-Prusoff equation. Ki=EC50/(1+(radioligand concentration/Kd))
Using the foregoing assay method, the Ki results were obtained using the compounds of the invention described in Tables IIIa, IIIb, and IV. Each example compound tested is reported in the following format: Example number: A2a Ki reported in nM. Thus, for example, the compound Ex-1 was determined to have an Ki using the above-described assay and calculations, of 10.0 nM.
On the technique in general: SPA uses beads or plates that emit light when radiolabelled molecules are held near them.

In the next assay the target is human A1 receptor (Homo sapiens (Human), UniProt P30542). Put plainly: A1 competition binding assay using Scintillation Proximity technology; selectivity = A1 binding Ki / A2a binding Ki. Particulars: A1 binding Ki divided by A2a binding Ki. The procedure:
as §1, with “A1” for “A2a”, “5” for “1* μg, or preferably 0.25 μg”, “CHO-K1” for “HEK293”, “0.7” for “0.5”, “8-Cyclopentyl-1,3-dipropylxanthine” for “5-amino-7-[2-phenethyl]-2-(furan-2-yl)-7H-pyrazolo[4,3-e][1,2,4]triazolo[1,5-c]pyrimidine”, “in a similar fashion described with A2a binding.” for “using the Cheng-Prusoff equation.”
• Cells expressing the human, rat, dog or monkey adenosine 1 receptor (Purchased from Perkin-Elmer # ES-010-M400UA • [^3H]DPCPX (purchased from Perkin-Elmer NET-974, 8-cyclopentyl-1,3-dipropylxanthine, [dipropyl-2,3-^3H(N)]. • Wheatgerm agglutinin-coated yttrium silicate SPA beads (Purchased from GE Healthcare #RPNQ0023). Dilute to 25 mg/ml in assay buffer. Store at 4° C. • Assay Buffer—Dulbecco's phosphate buffered saline without calcium and without magnesium+10 mM MgCl2 • Adenosine deaminase from calf intestine, 10 mg/2 ml (Roche #10 102 105 001). • DMSO • DPCPX (A1 antagonist) from Tocris Bioscience Compound Dilution • Dilute compounds to 1 mM in 100% DMSO
Make serial dilutions as necessary (i.e., 1:10, 1:3) in 100% DMSO.
Dilute 1:20 into assay buffer (i.e. 3 ul into 57 ul buffer). This is a 5× solution in 5% DMSO.
• Dilute [^3H]DPCPX to 1.75 nM in assay buffer. This is a 2.5× solution. The final concentration in the assay is 0.7 nM. Calculate the concentration by counting two 5 ul aliquots. Membrane Preparation • Use 5 ug of membrane/well. Dilute membranes to 250 ug/ml in assay buffer. Treat with 20 ug/ml adenosine deaminase (ADA) for 15 minutes at room temperature to degrade endogenous adenosine. Membrane-Bead Mixture • Use 25 ug/well wheatgerm agglutinin-coated yttrium silicate SPA beads • Mix ADA-treated membranes and SPA beads together for 30 min prior to assay. Assay Assembly • Add in order to a Perkin-Elmer Optiplate-384: 10 ul of 5× compound, 20 ul of 2.5× [^3H]DPCPX, 20 ul membrane-bead mixture. Incubate for one hour at room temperature with agitation. • Include total binding (assay buffer+1% DMSO) and non-specific binding (DPCPX, 1 uM) wells. Counting and Calculations

Setting [1] is: * assay run with 1 μg of membranes versus 0.25 μg, HEK293 cells expressing the human A2a receptor.
The mark [2] stands for this setting: 0.25 μg of membranes from HEK293 cells expressing the human A2a receptor.

human A1 receptor, sequence (P30542 whole entry): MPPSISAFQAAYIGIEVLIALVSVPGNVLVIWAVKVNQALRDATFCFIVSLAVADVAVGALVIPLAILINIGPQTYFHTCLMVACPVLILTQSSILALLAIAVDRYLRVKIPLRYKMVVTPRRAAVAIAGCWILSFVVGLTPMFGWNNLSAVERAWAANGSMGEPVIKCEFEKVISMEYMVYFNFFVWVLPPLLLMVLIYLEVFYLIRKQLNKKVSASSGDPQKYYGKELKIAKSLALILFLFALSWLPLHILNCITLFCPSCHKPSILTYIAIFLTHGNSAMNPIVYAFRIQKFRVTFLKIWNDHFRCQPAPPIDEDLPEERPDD

On human A2a receptor (setting [1]), `CC(C)Oc1cccc(-c2cccc(CNC(=O)c3nc(N)nc4c(F)cccc34)n2)c1` [Example 66, 2-amino-8-fluoro-N-[[6-(3-isopropoxyphenyl)-2-pyridyl]methyl]quinazoline-4-carboxamide] yielded a Ki of 3.8 nM. Also, the “A2a selectivity (A2a A1 binding selectivity)” value (“A2a selectivity” below) at human A1 receptor came to 3.

On human A2a receptor (setting [2]), `COc1cccc2c(C(=O)NCc3ncccc3C)nc(N)nc12` [Example 24, 2-amino-8-methoxy-N-[(3-methyl-2-pyridyl)methyl]quinazoline-4-carboxamide] displayed a Ki of 0.9 nM. Further, the “A2a selectivity” value on human A1 receptor was found to be 180.

At human A2a receptor (setting [2]), `COc1ccc(CNC(=O)c2nc(N)nc3c(OC)cccc23)nc1` [Example 22, 2-amino-8-methoxy-N-[(5-methoxy-2-pyridyl)methyl]quinazoline-4-carboxamide] yielded a Ki of 7.8 nM. Also, at human A1 receptor, the “A2a selectivity” value turned out to be 52.

`COc1cccc2c(C(=O)NCc3cccc(COc4ccc(F)cc4)n3)nc(N)nc12` [Example 45, 2-amino-N-[[6-[(4-fluorophenoxy)methyl]-2-pyridyl]methyl]-8-methoxy-quinazoline-4-carboxamide] showed a Ki at human A2a receptor (setting [2]) of 0.3 nM. Further, the “A2a selectivity” value at human A1 receptor turned out to be 230.

As to `COc1cccc2c(C(=O)NCc3ccc(F)cn3)nc(N)nc12` [Example 26, 2-amino-N-[(5-fluoro-2-pyridyl)methyl]-8-methoxy-quinazoline-4-carboxamide], at human A2a receptor (setting [2]), affinity was put at a Ki of 6.6 nM. Further, the “A2a selectivity” value on human A1 receptor turned out to be 89.

In the case of `CC1(O)CCN(c2cccc(CNC(=O)c3nc(N)nc4c(F)cccc34)n2)CC1` [Example 79, 2-amino-8-fluoro-N-[[6-(4-hydroxy-4-methyl-1-piperidyl)-2-pyridyl]methyl]quinazoline-4-carboxamide], the Ki at human A2a receptor (setting [2]) turned out to be 5.2 nM. Also, at human A1 receptor, the “A2a selectivity” value is reported as 14.

On to `COc1cccc2c(C(=O)NCc3cccn(C)c3=O)nc(N)nc12` [Example 61, 2-amino-8-methoxy-N-[(1-methyl-2-oxo-3-pyridyl)methyl]quinazoline-4-carboxamide], for which, at human A2a receptor (setting [2]), the affinity corresponds to a Ki of 0.9 nM. In addition, the “A2a selectivity” value on human A1 receptor came to 100.

`Nc1nc(C(=O)NCc2cccc3cccnc23)c2cccc(OC(F)(F)F)c2n1` [Example 101, 2-amino-N-(8-quinolylmethyl)-8-(trifluoromethoxy)quinazoline-4-carboxamide] registered a Ki at human A2a receptor (setting [2]) of 0.2 nM. Besides, the “A2a selectivity” value at human A1 receptor was 88.

With `COc1cccc2c(C(=O)NCc3ccc4ccccc4n3)nc(N)nc12` [Example 30, 2-amino-8-methoxy-N-(2-quinolylmethyl)quinazoline-4-carboxamide], on human A2a receptor (setting [2]), affinity was put at a Ki of 1.5 nM. Besides, the “A2a selectivity” value on human A1 receptor is 138.

As for `COc1ccc(C(C)(C)O)nc1CNC(=O)c1nc(N)nc2c(OC)cccc12` [Example 1, 2-amino-N-[[6-(1-hydroxy-1-methyl-ethyl)-3-methoxy-2-pyridyl]methyl]-8-methoxy-quinazoline-4-carboxamide], the affinity at human A2a receptor (setting [2]), expressed as Ki, was 10 nM. For the same compound, the “A2a selectivity” value at human A1 receptor worked out at 145.

For `COc1cccc2c(C(=O)NCc3ncccc3C(F)(F)F)nc(N)nc12` [Example 19, 2-amino-8-methoxy-N-[[3-(trifluoromethyl)-2-pyridyl]methyl]quinazoline-4-carboxamide], the affinity on human A2a receptor (setting [2]), expressed as Ki, was 2.6 nM. In addition, at human A1 receptor, the “A2a selectivity” value was 53.

`[2H]C([2H])(NC(=O)c1nc(N)nc2c(OC)cccc12)c1cccc(N2CCN(c3ccc(OCCOC)cc3)CC2)n1` [Example 60, 2-amino-N-[dideuterio-[6-[4-[4-(2-methoxyethoxy)phenyl]piperazin-1-yl]-2-pyridyl]methyl]-8-methoxy-quinazoline-4-carboxamide]: affinity at human A2a receptor (setting [1]) was put at a Ki of 4.3 nM. Moreover, the “A2a selectivity” value on human A1 receptor worked out at 67.

At human A2a receptor (setting [2]), `COc1cccc2c(C(=O)NCc3cccc4ccncc34)nc(N)nc12` [Example 16, 2-amino-N-(8-isoquinolylmethyl)-8-methoxy-quinazoline-4-carboxamide] displayed a Ki of 0.3 nM. Further, the “A2a selectivity” value at human A1 receptor is on record as 114.

Take `COc1cccc2c(C(=O)N[C@@H](CO)c3ccccc3)nc(N)nc12` [Example 36, 2-amino-N-[(1R)-2-hydroxy-1-phenyl-ethyl]-8-methoxy-quinazoline-4-carboxamide]: on human A2a receptor (setting [2]), the Ki came to 2.6 nM. Further, on human A1 receptor, the “A2a selectivity” value was 114.

The compound `COc1cccc2c(C(=O)NCc3ncccc3F)nc(N)nc12` [Example 25, 2-amino-N-[(3-fluoro-2-pyridyl)methyl]-8-methoxy-quinazoline-4-carboxamide] registered a Ki at human A2a receptor (setting [2]) of 1.4 nM. Moreover, the “A2a selectivity” value at human A1 receptor turned out to be 221.

The compound `COc1cccc2c(C(=O)NCc3cccc(CSc4ccc(F)cc4)n3)nc(N)nc12` [Example 55, 2-amino-N-[[6-[(4-fluorophenyl)sulfanyl-methyl]-2-pyridyl]methyl]-8-methoxy-quinazoline-4-carboxamide] showed a Ki at human A2a receptor (setting [1]) of 3.2 nM. For the same compound, at human A1 receptor, the “A2a selectivity” value was 36.

Take `Nc1nc(C(=O)NCc2cccc3cncn23)c2cccc(F)c2n1` [Example 80, 2-amino-8-fluoro-N-(imidazo[1,5-a]pyridin-5-ylmethyl)quinazoline-4-carboxamide]: the Ki on human A2a receptor (setting [1]) amounted to 6.2 nM. For the same compound, on human A1 receptor, the “A2a selectivity” value is 21.

Take `Nc1nc(C(=O)NCc2nccc3ccccc23)c2cccc(F)c2n1` [Example 89, 2-amino-8-fluoro-N-(isoquinolin-1-ylmethyl)quinazoline-4-carboxamide]: on human A2a receptor (setting [1]), the Ki turned out to be 6.6 nM. The “A2a selectivity” value at human A1 receptor is reported as 13.

For `Cc1ccc(CNC(=O)c2nc(N)nc3c(F)cccc23)nc1` [Example 72, 2-amino-8-fluoro-N-[(5-methyl-2-pyridyl)methyl]quinazoline-4-carboxamide], the affinity at human A2a receptor (setting [2]) corresponds to a Ki of 6.1 nM. Further, the “A2a selectivity” value at human A1 receptor came to 30.

`Nc1nc(C(=O)NCc2cccc3c2NCCC3)c2cccc(F)c2n1` [Example 90]: the affinity at human A2a receptor (setting [2]) corresponds to a Ki of 3 nM.

For orientation: Ki means a dissociation constant, usually derived from enzyme kinetics or from competition with a known ligand.
